Experimental data: the NIST ThermoML archive (doi:10.1016/j.jct.2013.05.029)

Legend:
[1] = 101.33 kPa, Liquid, Vibrating tube method
[2] = refractive index (other wavelength) (dimensionless); conditions: 101 kPa, Liquid, Wavelength=633 nm, Standard Abbe refractometry
[3] = relative permittivity at various frequencies (dimensionless); conditions: 101 kPa, Liquid, Frequency=0.151 MHz, Parallel plate capacitor
[4] = refractive index (other wavelength) (dimensionless); xn = mol fraction of the nth substance listed; conditions: 101 kPa, Liquid, Wavelength=633 nm, Standard Abbe refractometry

CCCCn1cc[n+](C)c1.F[B-](F)(F)F [1-butyl-3-methylimidazolium tetrafluoroborate]
Conditions | mass density [kg/m3] | refractive index
[1], 291.15 K | 1206.3 | –
[1], 293.15 K | 1204.9 | –
[1], 295.14 K | 1203.5 | –
[1], 298.15 K | 1201.3 | –
[1], 300.14 K | 1199.9 | –
[1], 303.15 K | 1197.7 | –
[1], 305.14 K | 1196.3 | –
[1], 308.15 K | 1194.1 | –
[1], 310.14 K | 1192.7 | –
[2], 292.99 K | – | 1.4207
[2], 298.14 K | – | 1.4194
[2], 300.94 K | – | 1.4187
[2], 303.06 K | – | 1.4182
[2], 307.96 K | – | 1.4169

OCCC(F)(F)C(F)(F)C(F)(F)C(F)(F)C(F)(F)C(F)(F)F [1H,1H,2H,2H-perfluorooctanol]
Conditions | mass density [kg/m3] | refractive index | relative permittivity
[1], 291.15 K | 1692.2 | – | –
[1], 293.15 K | 1688.7 | – | –
[1], 295.14 K | 1685.2 | – | –
[1], 298.15 K | 1679.9 | – | –
[1], 300.14 K | 1676.4 | – | –
[1], 303.15 K | 1671 | – | –
[1], 305.14 K | 1667.5 | – | –
[1], 308.15 K | 1662.1 | – | –
[1], 310.14 K | 1658.5 | – | –
[2], 292.89 K | – | 1.3152 | –
[2], 297.98 K | – | 1.3134 | –
[2], 300.94 K | – | 1.3125 | –
[2], 304.98 K | – | 1.3112 | –
[2], 307.95 K | – | 1.3101 | –
[2], 308.13 K | – | 1.31 | –
[3], 293.15 K | – | – | 9.67
[3], 298.15 K | – | – | 9.21
[3], 303.15 K | – | – | 8.83
[3], 308.15 K | – | – | 8.46
[3], 313.15 K | – | – | 8.12

OCCC(F)(F)C(F)(F)C(F)(F)C(F)(F)C(F)(F)C(F)(F)F [1H,1H,2H,2H-perfluorooctanol] + CCCCn1cc[n+](C)c1.F[B-](F)(F)F
[4]
Conditions | refractive index
568.17 K, x2 = 0.483 | 1.3609
568.17 K, x2 = 0.975 | 1.417
569.9 K, x2 = 0.514 | 1.3635
569.9 K, x2 = 0.972 | 1.4162
570.62 K, x2 = 0.528 | 1.3648
570.62 K, x2 = 0.969 | 1.4157
571.13 K, x2 = 0.539 | 1.3658
571.13 K, x2 = 0.967 | 1.4153
571.88 K, x2 = 0.555 | 1.3673
571.88 K, x2 = 0.963 | 1.4146
572.59 K, x2 = 0.569 | 1.3686
572.59 K, x2 = 0.96 | 1.414
573.11 K, x2 = 0.585 | 1.3701
573.11 K, x2 = 0.958 | 1.4137
573.58 K, x2 = 0.595 | 1.3712
573.58 K, x2 = 0.953 | 1.4128
574.07 K, x2 = 0.61 | 1.3726
574.07 K, x2 = 0.946 | 1.4119
574.57 K, x2 = 0.62 | 1.3736
574.57 K, x2 = 0.944 | 1.4115
575.11 K, x2 = 0.641 | 1.3757
575.11 K, x2 = 0.935 | 1.4102
575.59 K, x2 = 0.663 | 1.378
575.59 K, x2 = 0.93 | 1.4096
576.09 K, x2 = 0.684 | 1.3803
576.09 K, x2 = 0.917 | 1.4078
576.69 K, x2 = 0.729 | 1.3852
576.69 K, x2 = 0.892 | 1.4045
